Measured values published in article PMC7376718, “Flavonoids isolated from the South African weed Chromolaena odorata (Asteraceae) have pharmacological activity against uropathogens” (BMC Complementary Medicine and Therapies, 2020).
In brackets after ≈: the same amount, converted by molar mass. Like-named read-outs stand apart in the source and are kept apart here.

Experiments:
[1] = test system: E. coli (ATCC 25922) biofilm; assay: Biofilm inhibition, crystal violet staining; type: cell-based, Escherichia coli; conditions: planktonic (0 h) and biofilm (24 h) stages, 1 mg/mL and MIC level
Procedure: A single colony of E. coli (ATCC 25922) and S. aureus (ATCC 29213), strains were each inoculated into TSB and incubated for 24 h. The biofilm inhibition assay was carried out by adopting the method described by […] et al.. Two stages; planktonic, T0 and biofilm formation, T24 were investigated against the 24 h prepared bacterial cultures. One hundred microliters of each standardised bacterial culture (OD590 1 × 10^6 cfu/mL) was aliquoted into wells of a sterile flat bottomed 96-well microplate. Plates prepared for 24 h biofilm formation were immediately sealed with an adhesive sealer, placed in the incubator and incubated for 24 h at 37 °C. […] To the plates prepared for 0 h, the samples were added immediately. Wells containing cultures only, as well as acetone and sterile distilled water used to prepare the samples were included as controls. […] From the wells, 100 μL of the destaining solution was transferred to a new plate and semi-quantitative assessment of biofilm formation was done by measuring absorbance at 590 nm using SoftMax […] software on a microplate reader (SpectraMax M2). The mean absorbance of the samples was determined, and percentage inhibition was obtained using the equation below: percentage inhibiton=mean of culture control-mean of sample/mean of culture controlx100

[2] = test system: S. aureus (ATCC 29213) biofilm; assay: Biofilm inhibition, crystal violet staining; type: cell-based, Staphylococcus aureus; conditions: for Biofilm inhibition (verdict in words): planktonic (0 h) and biofilm (24 h) stages, 1 mg/mL and MIC level
Procedure: A single colony of E. coli (ATCC 25922) and S. aureus (ATCC 29213), strains were each inoculated into TSB and incubated for 24 h. The biofilm inhibition assay was carried out by adopting the method described by […] et al.. Two stages; planktonic, T0 and biofilm formation, T24 were investigated against the 24 h prepared bacterial cultures. One hundred microliters of each standardised bacterial culture (OD590 1 × 10^6 cfu/mL) was aliquoted into wells of a sterile flat bottomed 96-well microplate. Plates prepared for 24 h biofilm formation were immediately sealed with an adhesive sealer, placed in the incubator and incubated for 24 h at 37 °C. […] To the plates prepared for 0 h, the samples were added immediately. Wells containing cultures only, as well as acetone and sterile distilled water used to prepare the samples were included as controls. All plates after the addition of samples were sealed and incubated for 24 h to enable the samples to react with the biofilms. The incubated plates were washed with sterile distilled water three to four times after incubation to remove the unattached cells and were placed in the oven at 60 °C for 45 min. To all wells, 100 μL of 1% crystal violet dissolved in distilled water was added and plates were incubated for 15 min at room temperature after which the plates were washed again with sterile distilled water to remove unabsorbed stain. One hundred and twenty-five microliters of 100% ethanol was added to destain the wells. From the wells, 100 μL of the destaining solution was transferred to a new plate and semi-quantitative assessment of biofilm formation was done by measuring absorbance at 590 nm using SoftMax […] software on a microplate reader (SpectraMax M2). The mean absorbance of the samples was determined, and percentage inhibition was obtained using the equation below: percentage inhibiton=mean of culture control-mean of sample/mean of culture controlx100

[3] = test system: S. aureus; assay: Metabolic activity inhibition (INT); type: cell-based, Staphylococcus aureus
Procedure: The ability of the isolated compounds to inhibit the bacterial metabolic activity was tested against E. coli and S. aureus following the method used by Ramage and Lopez-Ribot with slight modification. The organisms were inoculated in a 96-well microplate following the same biofilm assay procedure described above. The final concentration of each compound in the wells was 0.016 mg/mL, 0.031 mg/mL, 0.063 mg/mL, 0.125 mg/mL and 1 mg/mL respectively. After 24 h of incubation with samples, the plates were washed three times with sterile distilled water and 50 μL of 1 mg/mL INT was added to each well and further incubated in the dark for 2 h. After incubation, absorbance was read at 490 nm using a microplate reader and the percentages of reduction of bacterial metabolic activity in the presence of different concentrations of compounds were calculated using the formula:
percentage inhibiton=mean of culture control−mean of sample/mean of culture controlx100

[4] = test system: E. coli; assay: Cell adhesion to BSA-coated polystyrene surface; type: cell-based, Escherichia coli; conditions: 1 mg/mL, polystyrene microplate
Procedure: (§1) Anti-adhesion activity of isolated compounds was determined using the method of Namasivayam and Vivek with slight modification. To a sterile 96-well flat-bottomed polystyrene microtititre plate, 150 μL of freshly prepared 1% lyophilized powdered globular protein BSA, dissolved in water was added to all wells except for the wells allocated for media only. The plates were incubated for 30 min at 30 °C. Following incubation the wells were washed three times with PBS. To the wells, 50 μL of bacterial cultures equivalent to 1 × 10^6 cfu/mL read at 590 nm, prepared from overnight cultures were added. […] The seeded microtitre plates were incubated for 24 h at 37 °C. Non-adhered cells were washed five times with PBS at room temperature. Adhered cells were stained by the addition of 50 μL of 0.1% crystal violet and further incubation for a further 30 min at room temperature. Afterwards, wells were washed with sterile distilled water to remove excess stain followed by the addition of 10 μL of absolute ethanol to fix the adhered cells. Finally, 50 μL of 0.2% Triton X was added to the wells to lyse the cells and the absorbance was read at 570 nm using a microplate reader. Percentage adherence inhibition was calculated using the formula above.

[5] = test system: S. aureus; assay: Cell adhesion to BSA-coated polystyrene surface; type: cell-based, Staphylococcus aureus; conditions: 1 mg/mL, polystyrene microplate
Procedure: as §1

[6] = test system: C. neoformans and A. fumigatus; assay: Mean MIC over the fungal isolates; type: cell-based; conditions: all time points of Table 3
Source text: The cultures used were Escherichia coli (American Type Culture Collection, ATCC 25922) labelled as 1, E. coli isolates (B1989/17 and B1962/17) labelled as 2 and 3 from equine urine, collected from the Department of Veterinary Tropical Diseases, Faculty of Veterinary Science, University of Pretoria, South Africa, Klebsiella pneumoniae isolate from commercial chicken eggs, Enterococcus faecalis (ATCC 29212), Pseudomonas aeruginosa (ATCC 27853), Staphylococcus aureus (ATCC 29213), Candida albicans from a Gouldian finch, Aspergillus fumigatus from a chicken and Cryptococcus neoformans from a cheetah. These microbial strains were maintained on MHA or SDA for bacteria and fungi respectively, while the isolates were maintained on blood agar.
Ten mg/mL of each fraction and 1 mg/mL of isolated compounds were prepared in 10% DMSO and tested against S. aureus, E. coli, K. pneumoniae, E. faecalis, P. aeruginosa, C. albicans, C. neoformans and A. fumigatus. Cultures were prepared by inoculating each microbial strain from prepared agar plates into sterilized MHB for bacterial and SDB for fungi in sterile McCartney bottles respectively. The inoculums were placed in an orbital shaker incubator. Bacterial strains were incubated at 37 °C for 18 h. Each bacterial culture was diluted in fresh MHB and the absorbance was measured at a wavelength of 560 nm using a microplate reader (Epoch Biotek). The readings were compared to a McFarland standard No. 1 correlating to approximately 3 × 10^8 cfu/mL). For fungi strains, cultures were incubated at 30 °C for 24 h (C. albicans), 72 h (C. neoformans) and 120 h (A. fumigatus) respectively. The resultant cells and spores were washed with sterile normal saline and absorbance was measured at a wavelength of 560 nm and turbidity was adjusted to a McFarland standard 1.This was further diluted in a 1:10 ratio in SDB to a turbidity of 5 × 10^5 cfu/mL. These diluted cultures (bacterial and fungi) were used for the screening following the serial microdilution method of Eloff.

| Compound | Biofilm inhibition (verdict in words) [1] | Biofilm inhibition ([2]; at 24 h) | Biofilm inhibition (verdict in words) [2] | Metabolic activity inhibition (verdict in words) [3] | Adherence inhibition (verdict in words) [4] | Adherence inhibition (verdict in words) [5] | MIC [6] [µg/mL] | Mean MIC [6] [µg/mL] | Metabolic activity inhibition (verdict in words) ([3]; planktonic stage, MIC of 0.063 mg/mL) |
| --- | --- | --- | --- | --- | --- | --- | --- | --- | --- |
| COc1ccc(-c2oc3cc(OC)cc(O)c3c(=O)c2OC)cc1 [Compound 3, 5-hydroxy-3,7,4′-trimethoxyflavone] | good and good activity and good inhibitory activity | higher than 50% | good and good inhibitory activity | good | weak | weak | – | – | – |
| COc1ccc(C2CC(=O)c3c(OC)cc(OC)cc3O2)cc1 (racemic) [Compound 2, (±)-4′,5,7-trimethoxy flavanone] | good and good activity and good inhibitory activity | – | good and poor inhibition and good inhibitory activity | good | weak | weak | 70 ± 60 (≈ 223 µM) | 70 | did not show inhibition |
